In the assay the target is T1, mSin3A PAH2 domain; SIN3A PAH2; Sin3A.
T1 construct: PAH2 (paired amphipathic helix 2) domain only
Briefly: fluorescence anisotropy competition assay. In kind it is binding, Mus musculus. As to conditions: conditions cited to earlier work. In general terms: Fluorescence polarisation rises when a labelled molecule tumbles more slowly, as on binding a larger partner.

The Ki is a dissociation constant, usually derived from enzyme kinetics or from competition with a known ligand. Read a low Ki as higher affinity. Compound `O=C(O)c1cccc2c1NC(c1cccc(Cl)c1Cl)C1CC=CC21` (stereo not shown) [C16, 4-(2,3-Dichlorophenyl)-3a,4,5,9b-tetrahydro-3H-cyclopenta[c]quinoline-6-carboxylic acid] had a Ki of 23.6 µM.

These data come from article PMC5190053, “Blocking the PAH2 domain of Sin3A inhibits tumorigenesis and confers retinoid sensitivity in triple negative breast cancer” (Oncotarget, 2016).
